Source: patent publication US10028992B2, “Methods of treating muscular dystrophy” (BOARD OF REGENTS OF THE NEVADA SYSTEM OF HIGHER EDUCATION …, priority 2012, dated 2018)

Tested on: α7 integrin promoter
Assay: muscle cell-based assay: α7βgal+/− myoblasts/myotubes, LacZ reporter, β-galactosidase cleavage of FDG
Design: species or system mouse; Results in α7+/− β-galactosidase assay: scale not given here
Conditions: Myoblasts
How it was run: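 Primary α7βgal+/− mouse myoblasts (LacZ knocked into α7 integrin exon 1, promoter retained), differentiated; promoter activity read as β-galactosidase conversion of non-fluorescent FDG to fluorescein. Hits followed by dose-response, western analysis and myostatin counterscreen.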

`Nc1ncnc(NCc2ccccc2)c1[N+](=O)[O-]` [drawing 694] was tested, and the “Results in α7+/− β-galactosidase assay” value (0.5 uM) was 0.01911, the “Results in α7+/− β-galactosidase assay” value (1 uM) was 0.00831 and the “Results in α7+/− β-galactosidase assay” value (5 uM) was 0.2463. For the same compound, the “Results in α7+/− β-galactosidase assay” value (10 uM) was −0.04019, the “Results in α7+/− β-galactosidase assay” value (20 uM) was −0.00635 and the “Results in α7+/− β-galactosidase assay” value (40 uM) was 0.02312.

With `O=CN1CCN(C(=O)CC(c2ccccc2)c2cc(Br)ccc2O)CC1` (stereo not drawn) [drawing 695] the “Results in α7+/− β-galactosidase assay” value (0.5 uM) was 0.1751, the “Results in α7+/− β-galactosidase assay” value (1 uM) was 0.03283 and the “Results in α7+/− β-galactosidase assay” value (5 uM) was 0.07723. For the same compound, the “Results in α7+/− β-galactosidase assay” value (10 uM) was −0.1323, the “Results in α7+/− β-galactosidase assay” value (20 uM) was 0.00725 and the “Results in α7+/− β-galactosidase assay” value (40 uM) was −0.04551.

With `Cc1ccc2c(c1)/C(=C/c1ccco1)C(=O)N2` [drawing 696] the “Results in α7+/− β-galactosidase assay” value (0.5 uM) was 0.2035, the “Results in α7+/− β-galactosidase assay” value (1 uM) was 0.02005 and the “Results in α7+/− β-galactosidase assay” value (5 uM) was 0.2293. For the same compound, the “Results in α7+/− β-galactosidase assay” value (10 uM) was 0.07554, the “Results in α7+/− β-galactosidase assay” value (20 uM) was 0.1241 and the “Results in α7+/− β-galactosidase assay” value (40 uM) was 0.1026.

For `O=C1CCC(C(=O)N2CCSCC2)CN1Cc1ccc(Cl)cc1` (stereo not drawn) [drawing 697], the “Results in α7+/− β-galactosidase assay” value (0.5 uM) was 0.1419, the “Results in α7+/− β-galactosidase assay” value (1 uM) was −0.02657 and the “Results in α7+/− β-galactosidase assay” value (5 uM) was 0.2626. For the same compound, the “Results in α7+/− β-galactosidase assay” value (10 uM) was 0.4599, the “Results in α7+/− β-galactosidase assay” value (20 uM) was 0.2652 and the “Results in α7+/− β-galactosidase assay” value (40 uM) was 0.222.

In the case of `c1ccc(-c2cn3c4c(sc3n2)CCCC4)cc1` [drawing 698], the “Results in α7+/− β-galactosidase assay” value (0.5 uM) was 0.1572, the “Results in α7+/− β-galactosidase assay” value (1 uM) was 0.06589 and the “Results in α7+/− β-galactosidase assay” value (5 uM) was 0.03743. For the same compound, the “Results in α7+/− β-galactosidase assay” value (10 uM) was 0.2239, the “Results in α7+/− β-galactosidase assay” value (20 uM) was −0.06232 and the “Results in α7+/− β-galactosidase assay” value (40 uM) was −0.1797.

`COc1ccccc1CC(=O)Nc1cc(S(=O)(=O)N2CCOCC2)ccc1N1CCOCC1` [drawing 699] was tested, and the “Results in α7+/− β-galactosidase assay” value (0.5 uM) was 0.122, the “Results in α7+/− β-galactosidase assay” value (1 uM) was −0.02918 and the “Results in α7+/− β-galactosidase assay” value (5 uM) was 0.0982. For the same compound, the “Results in α7+/− β-galactosidase assay” value (10 uM) was 0.2162, the “Results in α7+/− β-galactosidase assay” value (20 uM) was −0.2175 and the “Results in α7+/− β-galactosidase assay” value (40 uM) was −0.3265.

`COc1ccccc1/C=C1\C(=O)Nc2ccccc21` [drawing 700] was tested, and the “Results in α7+/− β-galactosidase assay” value (0.5 uM) was 0.2078, the “Results in α7+/− β-galactosidase assay” value (1 uM) was 0.1004 and the “Results in α7+/− β-galactosidase assay” value (5 uM) was 0.141. For the same compound, the “Results in α7+/− β-galactosidase assay” value (10 uM) was 0.312, the “Results in α7+/− β-galactosidase assay” value (20 uM) was −0.00605 and the “Results in α7+/− β-galactosidase assay” value (40 uM) was −0.06928.

With `CN1C(=O)N(CC(=O)N2CCN(S(=O)(=O)c3ccc(Cl)s3)CC2)C(=O)C12CCCCC2` [drawing 701] the “Results in α7+/− β-galactosidase assay” value (0.5 uM) was 0.1065, the “Results in α7+/− β-galactosidase assay” value (1 uM) was 0.03367 and the “Results in α7+/− β-galactosidase assay” value (5 uM) was 0.1338. The “Results in α7+/− β-galactosidase assay” value (10 uM) was 0.2611, the “Results in α7+/− β-galactosidase assay” value (20 uM) was −0.306 and the “Results in α7+/− β-galactosidase assay” value (40 uM) was −0.5075.

With `Cn1cc(CN2CCC(C(=O)Nc3cccc(-c4cscn4)c3)CC2)cn1` [drawing 702] the “Results in α7+/− β-galactosidase assay” value (0.5 uM) was 0.1618, the “Results in α7+/− β-galactosidase assay” value (1 uM) was 0.05749 and the “Results in α7+/− β-galactosidase assay” value (5 uM) was 0.02884. The “Results in α7+/− β-galactosidase assay” value (10 uM) was 0.2457, the “Results in α7+/− β-galactosidase assay” value (20 uM) was −0.3975 and the “Results in α7+/− β-galactosidase assay” value (40 uM) was −0.5369.

`O=C1Cc2ccccc2/C1=C\c1ccc([N+](=O)[O-])cc1` [drawing 703] was tested, and the “Results in α7+/− β-galactosidase assay” value (0.5 uM) was 0.04429, the “Results in α7+/− β-galactosidase assay” value (1 uM) was −0.00937 and the “Results in α7+/− β-galactosidase assay” value (5 uM) was 0.02036. For the same compound, the “Results in α7+/− β-galactosidase assay” value (10 uM) was 0.1452, the “Results in α7+/− β-galactosidase assay” value (20 uM) was −0.2086 and the “Results in α7+/− β-galactosidase assay” value (40 uM) was −0.4972.

With `CCCC(=O)OCC(=O)c1[nH]c(C)c(C(C)=O)c1C` [drawing 704] the “Results in α7+/− β-galactosidase assay” value (0.5 uM) was 0.1272, the “Results in α7+/− β-galactosidase assay” value (1 uM) was 0.03672 and the “Results in α7+/− β-galactosidase assay” value (5 uM) was 0.01568. The “Results in α7+/− β-galactosidase assay” value (10 uM) was 0.2296, the “Results in α7+/− β-galactosidase assay” value (20 uM) was −0.2776 and the “Results in α7+/− β-galactosidase assay” value (40 uM) was −0.5017.

In the case of `CCO/C(C)=C1\C(=O)Nc2ccccc21` [drawing 705], the “Results in α7+/− β-galactosidase assay” value (0.5 uM) was −0.00711, the “Results in α7+/− β-galactosidase assay” value (1 uM) was 0.04915 and the “Results in α7+/− β-galactosidase assay” value (5 uM) was 0.06742. For the same compound, the “Results in α7+/− β-galactosidase assay” value (10 uM) was 0.09535, the “Results in α7+/− β-galactosidase assay” value (20 uM) was −0.0389 and the “Results in α7+/− β-galactosidase assay” value (40 uM) was −0.1063.

For `COc1ccc(C(=O)Nc2ccc(Cl)cn2)cc1Cl` [drawing 706], the “Result in α7+/− β-galactosidase assay” value (0.5 uM) was 0.1451, the “Result in α7+/− β-galactosidase assay” value (1 uM) was 0.1676 and the “Result in α7+/− β-galactosidase assay” value (5 uM) was −0.1344. For the same compound, the “Result in α7+/− β-galactosidase assay” value (10 uM) was −0.2645, the “Result in α7+/− β-galactosidase assay” value (20 uM) was −0.7598 and the “Result in α7+/− β-galactosidase assay” value (40 uM) was −0.8234.

For `CCOc1ccccc1NC(=O)c1cccc2c1C(=O)N(C1CCCCC1)C2` [drawing 707], the “Result in α7+/− β-galactosidase assay” value (0.5 uM) was 0.2793, the “Result in α7+/− β-galactosidase assay” value (1 uM) was 0.1772 and the “Result in α7+/− β-galactosidase assay” value (5 uM) was −0.01616. For the same compound, the “Result in α7+/− β-galactosidase assay” value (10 uM) was 0.02001, the “Result in α7+/− β-galactosidase assay” value (20 uM) was 0.1258 and the “Result in α7+/− β-galactosidase assay” value (40 uM) was 0.02179.
